{"source": "paper PMC9095528", "about": "“Spectrofluorimetric Approach for Quantification of Cyclizine in the Presence of its Toxic Impurities in Human Plasma; in silico Study and ADMET Calculations” (Journal of Fluorescence, 2022)", "key": {"[1]": {"assay": "Pharmacokinetics of CYZ in human plasma after I.V administration (non-compartmental analysis)", "format": "in vivo", "experimental": "One mL of CYZ was intravenously injected into three human volunteers in good health and Using a calibrated heparinized tube, a 5 mL sample of human blood was drawn from each volunteer after 0.5, 1, 2, 4, 8 hrs. All the collected samples were centrifuged for 20 min at 4000 rpm. 1 mL of each sample was quantitatively poured into a centrifuge tube, and 1 mL acetonitrile was applied to precipitate plasma proteins, until centrifugation at 4000 rpm for 20 minutes. The clear plasma supernatant was transferred to Eppendorf tubes and held at […] until the rest of the procedure was completed.\nNon-compartmental analysis (NCA) was used to measure pharmacokinetic parameters such as half-life, C max, T max, elimination rate constant, clearance, apparent volume of distribution, and area under the curve using Thermo Kinetica software (version 5.0) and PK solver software after taking human plasma samples from previously injected volunteers. In deciding the proper usage of the drug and in forecasting the impact of pharmacokinetic drug interactions, the results of pharmacokinetic research have been helpful."}, "[2]": {"assay": "Stability of CYZ in plasma (short-term room temperature and freeze-thaw)", "format": "in vitro ADME, human", "conditions": "rat plasma", "experimental": "To cover the anticipated sample treatment and storage environments during the processing of samples, the stability of CYZ in human plasma was investigated as short‐term stability at room temperature and freeze–thaw stability. In all stability tests, three replicates of three concentrations at low, medium, and high levels were treated and compared to recently prepared QC samples."}, "[3]": {"conditions": "intravenous, I.V administration of Emetrex 50 mg"}}}
{"smiles": "CN1CCN(C(c2ccccc2)c2ccccc2)CC1", "note": "[CYZ, 1-benzhydryl-4-methylpiperazine]", "values": [{"measurement": "Elimination rate constant (K)", "setting": "[1]; I.V administration of Emetrex 50 mg", "value": "0.274 ± 0.10"}, {"measurement": "Tmax", "setting": "[1]; intravenous, 50 mg, after I.V injection", "value": 2, "unit": "h"}, {"measurement": "AUC(0-inf)", "setting": "[1]; [3]", "value": "213 ± 7.21", "unit": "µg·h/mL"}, {"measurement": "AUC(0-t)", "setting": "[1]; [3]", "value": "22.3 ± 1.22", "unit": "µg·h/mL"}, {"measurement": "Cmax", "setting": "[1]; [3]", "value": "72.8 ± 1.56", "unit": "ng/mL"}, {"measurement": "half-life", "setting": "[1]; [3]", "value": "2.53 ± 0.43", "unit": "h"}, {"measurement": "Vd", "setting": "[1]; intravenous, I.V administration of Emetrex 50 mg, read-out: Volume of distribution (Vd)", "value": "0.695 ± 0.23", "unit": "L"}, {"measurement": "remaining at 6 h, 30 ng/mL", "setting": "[2]; 30 ng/mL, room temperature for 6 h", "value": "97 ± 1.13", "unit": "%"}, {"measurement": "remaining at 30 ng/mL", "setting": "[2]; 30 ng/mL, three freeze thaw cycle", "value": "97.1 ± 1.32", "unit": "%"}, {"measurement": "remaining at 6 h, 400 ng/mL", "setting": "[2]; 400 ng/mL, room temperature for 6 h", "value": "98.03 ± 0.98", "unit": "%"}, {"measurement": "remaining at 400 ng/mL", "setting": "[2]; 400 ng/mL, three freeze thaw cycle", "value": "96.5 ± 0.97", "unit": "%"}, {"measurement": "remaining at 6 h, 800 ng/mL", "setting": "[2]; 800 ng/mL, room temperature for 6 h", "value": "96.1 ± 1.88", "unit": "%"}, {"measurement": "remaining at 800 ng/mL", "setting": "[2]; 800 ng/mL, three freeze thaw cycle", "value": "97.2 ± 1.76", "unit": "%"}]}
